The source of these data is ChEMBL document CHEMBL1201862, “PubChem BioAssay data set” (2004).

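Tested at 5 concentrations; 48 h exposure; 96-well plates; endpoints linearly interpolated, else capped at highest concentration. At the GI50, growth is halved.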 Active and inactive are the calls of the source. No stated cut-off is given here; in the data, active = GI50 up to about 1.1 µM and inactive = higher.

Holding throughout (experiment): growth of human tumour cells (NCI), 48 h
The subject of experiment [1] is SK-MEL-28.
Experiment [2] concerns UACC-257.
The subject of experiment [3] is OVCAR-8.
The subject of experiment [4] is U-251.
The test system of experiment [5] is BT-549.
Experiment [6] concerns NCI-H23.
The test system of experiment [7] is HOP-92.
Experiment [8] concerns IGROV-1.
In experiment [9] the test system is MDA-MB-231.
Experiment [10] relates to RPMI-8226.
Experiment [11] has as its system M14.
Experiment [12] concerns 786-0.
In experiment [13] the test system is NCI-H522.
In experiment [14] the test system is ACHN.
For experiment [15], the system named is HT-29.
For experiment [16], the system named is DU-145.
Experiment [17] concerns SNB-75.
Experiment [18] concerns MCF7.
In experiment [19] the test system is Hs-578T.

In the case of `C=CCc1cccc(C(=O)/C=C(O)/C=C/c2ccccc2Cl)c1O`, the GI50 in experiment [1] is 10.5 µM (inactive); in [2], 13.8 µM (inactive); in experiment [3] it was 6.04 µM (inactive); in experiment [4] it was 5.66 µM (inactive); in [5] it was 37.4 µM (inactive); in experiment [6], 6.12 µM (inactive). In addition, the GI50 in experiment [7] was 25.6 µM (inactive); in [8] it was 0.352 µM (active); in experiment [9], 36.7 µM (inactive); in experiment [10] it was 6.67 µM (inactive); in [11] it was 24.5 µM (inactive); in experiment [12] it was 10.4 µM (inactive). Moreover, the GI50 in experiment [13] is 11.2 µM (inactive); in experiment [14], 23.3 µM (inactive); in experiment [15] it was 9.93 µM (inactive); in [16], 15.1 µM (inactive); in experiment [17], 67.3 µM (inactive); in experiment [18], 13.2 µM (inactive).
With `Cc1ccc(C)c(NC(=O)C(=O)C(c2cnc3ccc([N+](=O)[O-])cc3n2)[N+](=O)[O-])c1` (configuration not stated), the GI50 in experiment [1] was > 100 µM (inactive); in experiment [2] it was 38.6 µM (inactive); in [3], 27 µM (inactive); in [4] it was 40.8 µM (inactive); in [5] it was 53.5 µM (inactive); in experiment [19], > 100 µM (inactive). The GI50 in experiment [6] was > 100 µM (inactive); in [7] it was 36.2 µM (inactive); in experiment [8] it was 26.5 µM (inactive); in experiment [10] it was 0.102 µM (active); in experiment [11] it was 56.9 µM (inactive); in experiment [12], 52.8 µM (inactive). The GI50 was 21.1 µM (inactive) in experiment [13]; 26.6 µM (inactive) in experiment [14]; 61.2 µM (inactive) in [15]; 77.4 µM (inactive) in experiment [16]; 81.7 µM (inactive) in experiment [17]; > 100 µM (inactive) in [18].
Take `COc1cccc(-n2c(N)c(-c3nc4cc(C(F)(F)F)ccc4s3)c3ccc([N+](=O)[O-])cc3c2=O)c1`: the GI50 in experiment [1], in experiment [2], in experiment [4], in experiment [5], in experiment [6] and in experiment [7] was > 100 µM (inactive) each time. Moreover, the GI50 in [9], in experiment [10], in [11], in experiment [12], in experiment [13] and in experiment [14] was > 100 µM (inactive) in each case. Further, the GI50 in experiment [15], in [16], in experiment [17] and in [18] was > 100 µM (inactive) in each case.
`CCCCCCOc1ccc(NC2=C(Cl)C(=O)c3ncccc3C2=O)cc1`: the GI50 in experiment [1] is 1.64 µM (inactive); in experiment [2], 1.9 µM (inactive); in experiment [3], 3.43 µM (inactive); in experiment [4], 1.61 µM (inactive); in experiment [5], 1.76 µM (inactive); in experiment [19] it was 1.79 µM (inactive). Moreover, the GI50 in experiment [6] was 1.97 µM (inactive); in experiment [7], > 10 µM (inactive); in experiment [8] it was 2.77 µM (inactive); in experiment [11], 1.88 µM (inactive); in experiment [12], 2.22 µM (inactive); in [14], > 10 µM (inactive). Besides, the GI50 in [15] was 3.87 µM (inactive); in [16] it was 1.5 µM (inactive); in experiment [17], 1.99 µM (inactive); in [18], 1.11 µM (active).
Regarding `O=C(NCCN1CCCCC1)c1cccc(I)c1`, the GI50 in experiment [1], in experiment [3], in experiment [4], in experiment [5], in experiment [19] and in [6] was > 100 µM (inactive) throughout. Also, the GI50 in [7] was 94.2 µM (inactive); in experiment [8] it was > 100 µM (inactive); in [10] it was > 100 µM (inactive); in experiment [11] it was 72.9 µM (inactive); in experiment [12] it was > 100 µM (inactive); in experiment [14], > 100 µM (inactive). Besides, the figures for the GI50 in experiment [15], in experiment [17] and in experiment [18] were 49.7 µM (inactive), 55.2 µM (inactive) and > 100 µM (inactive), respectively.
Take `CCOC(=O)CCC(C(=O)OCC)n1nc2ccc(Nc3c(C)[n+]([O-])c4cc(Cl)ccc4[n+]3[O-])cc2n1` (configuration not stated): the GI50 is 94.4 µM (inactive) in [2]; > 100 µM (inactive) in [3]; > 100 µM (inactive) in [4]; > 100 µM (inactive) in experiment [5]; 59.6 µM (inactive) in experiment [19]; > 100 µM (inactive) in experiment [6]. The GI50 is 27 µM (inactive) in experiment [7]; > 100 µM (inactive) in experiment [8]; 19.5 µM (inactive) in [10]; > 100 µM (inactive) in experiment [11]; 83.9 µM (inactive) in [12]; 40 µM (inactive) in experiment [13]. The GI50 in [14] was > 100 µM (inactive); in experiment [15], 64.9 µM (inactive); in experiment [16], > 100 µM (inactive); in [17], > 100 µM (inactive); in experiment [18], 38.2 µM (inactive).
In the case of `CCC(=O)Nc1ccc(NS(=O)(=O)c2ccc(Cl)cc2)cc1`, the GI50 in experiment [1] was > 100 µM (inactive); in experiment [2] it was 87.7 µM (inactive); in experiment [3], > 100 µM (inactive); in [5], > 100 µM (inactive); in experiment [19] it was > 100 µM (inactive); in experiment [6] it was > 100 µM (inactive). Also, the GI50 in experiment [7] is > 100 µM (inactive); in [8], > 100 µM (inactive); in experiment [10], 17.7 µM (inactive); in experiment [11], > 100 µM (inactive); in experiment [12], > 100 µM (inactive); in [13], > 100 µM (inactive). Further, the GI50 in [14], in experiment [15], in experiment [16], in [17] and in [18] was > 100 µM (inactive) in each case.
For `CN(C)CN1CSC(=S)N(CN(C)C)C1`, the GI50 was > 100 µM (inactive) in experiment [1]; > 100 µM (inactive) in [2]; > 100 µM (inactive) in experiment [3]; 32.3 µM (inactive) in [4]; > 100 µM (inactive) in experiment [5]; > 100 µM (inactive) in experiment [19]. Further, the GI50 was > 100 µM (inactive) in experiment [6]; > 100 µM (inactive) in experiment [7]; 54.3 µM (inactive) in experiment [8]; > 100 µM (inactive) in experiment [9]; > 100 µM (inactive) in experiment [11]; 43 µM (inactive) in [12]. For the same molecule, the GI50 is 42 µM (inactive) in [13]; > 100 µM (inactive) in experiment [14]; > 100 µM (inactive) in [15]; > 100 µM (inactive) in [16]; 58.2 µM (inactive) in [17].
For the molecule `CC(=O)N/N=C1/CC[C@@]2(C)C(=CC[C@H]3C4CCC(C(C)CCCC(C)C)[C@@]4(C)CCC32)C1(C)C` (some centres not stated), the GI50 in experiment [1] is > 100 µM (inactive); in experiment [2], 36.6 µM (inactive); in experiment [3] it was 51.1 µM (inactive); in [4], 75.5 µM (inactive); in experiment [5], > 100 µM (inactive); in [19], > 100 µM (inactive). For the same molecule, the GI50 in [6] is 70 µM (inactive); in experiment [7], > 100 µM (inactive); in experiment [8], 57.4 µM (inactive); in experiment [10], > 100 µM (inactive); in experiment [11], 48 µM (inactive); in experiment [12], 43.7 µM (inactive). For the same molecule, the GI50 in experiment [13] was 58.9 µM (inactive); in experiment [14] it was 62.4 µM (inactive); in experiment [15], 31.5 µM (inactive); in [16], > 100 µM (inactive); in experiment [17], > 100 µM (inactive); in [18], 53.7 µM (inactive).
Consider `N#CCc1n[nH]c2nc(SCc3ccccc3)nc(N3CCCCC3)c12`, for which the GI50 in experiment [1] is 20.5 µM (inactive); in experiment [2], 20.8 µM (inactive); in experiment [3], 38.9 µM (inactive); in experiment [4], 18.7 µM (inactive); in experiment [5], 18.6 µM (inactive); in [19], 21.4 µM (inactive). For the same molecule, the GI50 in [6] was 18.5 µM (inactive); in experiment [7], 16.6 µM (inactive); in experiment [10], 27.1 µM (inactive); in experiment [11], 19.4 µM (inactive); in experiment [12] it was 17.3 µM (inactive); in [13], 19.3 µM (inactive). In addition, the GI50 in experiment [14] is 21.2 µM (inactive); in experiment [15], 20.3 µM (inactive); in experiment [16], 18.2 µM (inactive); in [17], 18.2 µM (inactive); in experiment [18], 21.9 µM (inactive).
With `O=C(O)C1CCCCN1C(=O)Cc1c[nH]c2ccccc12` (configuration not stated), the GI50 in [1], in experiment [2], in [3], in [4], in experiment [5] and in experiment [6] was > 100 µM (inactive) in each case. The GI50 in [7] was > 100 µM (inactive); in experiment [8] it was > 100 µM (inactive); in experiment [9], 29 µM (inactive); in [10], > 100 µM (inactive); in experiment [11], > 100 µM (inactive); in experiment [12], > 100 µM (inactive). In addition, the GI50 in experiment [13], in [14], in experiment [15], in experiment [16], in [17] and in experiment [18] was > 100 µM (inactive) throughout.
